Where two headings read alike, the source gives them in different places.
System: WiDr cells
Test: Cell death rate by flow cytometry (PI DNA content, EPICS XL)
Format: cell-based, human
Conditions: for Cell death rate (%): WiDr cells
Procedure: DMEM medium containing 10% fetal bovine serum was placed in plastic culture dishes having a diameter of 6 cm. Then, WiDr cells (obtained from HSRRB), which were human colon carcinoma cells, were inoculated thereinto so as to give a density of 2.0 x 10^5 cells/3 mL. These culture dishes were incubated at 37°C for 48 hours. Moreover, 1/1000 volume of PD98059 (with a final concentration of 50 µmol/L) or solvent (DMSO) was added thereto, followed by incubation for 12 hours. Thereafter, 1/1000 volume of TZT-1027 (with a final concentration of 10 nmol/L) or solvent (a lactic acid buffer) was added thereto. Where vincristine was used as the microtubule-interfering agent, 1/1000 volume of vincristine sulfate (with a final concentration of 100 nmol/L) or solvent (DMSO) was added thereto. Twenty-four (24), 48, 72 or 96 hours after the addition of TZT-1027, vincristine or solvent, cells were collected and worked up according to the following procedure. With respect to a solvent control group and a group treated with PD98059 alone, cells were similarly collected and worked up after 96 hours' incubation.
First of all, all of the culture medium was transferred to a centrifuge tube. The remaining cells were suspended by adding 1 mL of a 0.05% trypsin/phosphate-buffered physiological saline (PBS)-EDTA solution to the culture dish and incubating it at 37°C for 5 minutes, and combined with the above culture medium. The centrifuge tube was centrifuged at 1,500 rpm for 5 minutes. Then, the precipitate was resuspended in 1 mL of PBS, transferred to a light-shielding microtube, and centrifuged at 2,500 rpm for 5 minutes. After the precipitate was suspended in 60 µL of PBS, 140 µL of 100% ethanol was added thereto and the resulting suspension was stirred and allowed to stand at -20°C overnight or longer. Moreover, the suspension was centrifuged at 2,500 rpm for 5 minutes, and 100 µL of a phosphate-citric acid buffer (0.2M […] : 0.1M citric acid = 24:1) was added to the precipitate, followed by stirring (at 500 rpm) at room temperature for 30 minutes. After suspension was centrifuged at 2,500 rpm for 5 minutes, 100 µL of PBS and 1 µL of an RNase solution (10 mg/mL (PBS); obtained from SIGMA) was added to the precipitate, followed by incubation at 37°C for 30 minutes. Thereafter, 880 µL of PBS and 20 µL of a propidium iodide (hereinafter referred to as "PI") solution (1 mg/mL (PBS); obtained from Wako Pure Chemical Industries Ltd.) were added thereto and reacted at room temperature for 30 minutes with stirring. The resulting reaction mixture was allowed to stand in the dark under cooling with ice until it was used for measurement.
The cell death rate was measured and analyzed by means of an EPICS XL system (manufactured by COULTER). Prior to analysis, the EPICS XL system was checked by means of DNAcheck (manufactured by COULTER).
Next, a protocol used for calculating the cell death rate by using the DNA content as a parameter was constructed. In this protocol, FS (forward scatter), SS (side scatter) and FL3 (PI fluorescence) were selected as parameters, and the number of analyzed cells was 30,000. Furthermore, by measuring a control sample of cells to be actually measured, the sensitivity of the detector and regions were preset with consideration for each parameter. Measurements were made by pipetting a sample at several times, transferring it into an exclusive tube, and setting it in the main unit of the EPICS XL system. The cell death rate was calculated by use of histograms in the protocol, which were constructed by removing doublets and triplets from data incorporating dead cells.

[1] = Homo sapiens, WiDr, 96 h, read-out: Cell death rate (%)
[2] = Homo sapiens, WiDr, 24 h, read-out: Cell death rate (%)
[3] = Homo sapiens, WiDr, 48 h, read-out: Cell death rate (%)

Q: How did the cytotoxicity at 50 µM [1] turn out when `COc1cccc(-c2cc(=O)c3ccccc3o2)c1N` [PD98059, 2-(2-amino-3-methoxyphenyl)-4H-chromen-4-one] was run?
A: The cytotoxicity at 50 µM was 8.9%.

Q: For `CC[C@H](C)[C@@H]([C@@H](CC(=O)N1CCC[C@H]1[C@H](OC)[C@@H](C)C(=O)NCCc1ccccc1)OC)N(C)C(=O)[C@@H](NC(=O)[C@H](C(C)C)N(C)C)C(C)C` [TZT-1027, N^2-(N,N-Dimethyl-L-valyl)-N-[(1S,2R)-2-methoxy-4-[(2S)-2-[(1R,2R)-1-methoxy-2-methyl-3-oxo-3-[(2-phenylethyl)-amino]propyl]-1-pyrrolidinyl]-1-[(S)-1-methylpropyl]-4-oxobutyl]-N-methyl-L-valinamide], which cytotoxicity at 0.01 µM [2] is on record?
A: The cytotoxicity at 0.01 µM was 3.8%.

Q: What about the cytotoxicity at 0.01 µM [3] of the same compound?
A: Its cytotoxicity at 0.01 µM is 9.2%.

Q: And the cytotoxicity at 0.01 µM [1]?
A: Its cytotoxicity at 0.01 µM is 23.3%.

Q: What about the “Cell death rate (%)” value (TZT-1027 10 nmol/L combined with PD98059 50 µmol/L (added 12 hours before), time 24) of the same compound?
A: Its value is 10.5%.

Q: What about the “Cell death rate (%)” value (TZT-1027 10 nmol/L combined with PD98059 50 µmol/L (added 12 hours before), time 48) of the same compound?
A: The value was 35.9%.

Q: What about the “Cell death rate (%)” value (TZT-1027 10 nmol/L combined with PD98059 50 µmol/L (added 12 hours before), time 96) of the same compound?
A: The value was 48.1%.

Q: `CC[C@]1(O)C[C@H]2CN(CCc3c([nH]c4ccccc34)[C@@](C(=O)OC)(c3cc4c(cc3OC)N(C=O)[C@H]3[C@@](O)(C(=O)OC)[C@H](OC(C)=O)[C@]5(CC)C=CCN6CC[C@]43[C@@H]65)C2)C1` [Vincristine, vincristine] was tested. Which cytotoxicity at 0.1 µM [2] did it give?
A: Its cytotoxicity at 0.1 µM is 4.5%.

Q: And the cytotoxicity at 0.1 µM [3]?
A: The cytotoxicity at 0.1 µM was 8.4%.

Q: And the cytotoxicity at 0.1 µM (Homo sapiens, WiDr, 72 h, read-out: Cell death rate (%))?
A: The cytotoxicity at 0.1 µM was 23.3%.

Q: And the “Cell death rate (%)” value (Vincristine 100 nmol/L combined with PD98059 50 µmol/L (added 12 hours before), time 24)?
A: Its value is 12.1%.

Q: And the “Cell death rate (%)” value (Vincristine 100 nmol/L combined with PD98059 50 µmol/L (added 12 hours before), time 48)?
A: Its value is 37.4%.

Q: What about the “Cell death rate (%)” value (Vincristine 100 nmol/L combined with PD98059 50 µmol/L (added 12 hours before), time 72) of the same compound?
A: Its value is 58.7%.

— patent EP1142583A1, “ANTITUMOR AGENTS” (TEIKOKU HORMONE MFG. CO., LTD., priority 1999, dated 2000)
